The source of these data is patent publication US9809621B2, “Stable peptide-based PACE4 inhibitors” (SOCPRA SCIENCES SANTÉ ET HUMAINES S.E.C., priority 2011, dated 2017).

A short description of data set [1]: Plasmatic half-life / degradation by plasmatic protease. The class given is in vitro ADME. As to conditions: plasma. As to the method: (§1) Multiple multi-Leu variants described in Table 1 were tested for their stability following incubation with DU145 cells, wherein their cellular stability and plasmatic half-life was measured.
Stabilisation strategy for multi-Leu variants was also assessed in presence of plasmatic protease. 8 variants protected at their N-terminal leucines were tested in order to establish their level of degradation since it is expected that N-terminal degradation will occur in absence of any modifications other than acetylation. Variants tested with azaβ3-leucine at each individual position and “click” bonds between the different leucines of the N-terminal part of the variants were protected against degradation (see FIG. 3 for modifications).

The target in the next data set is T1, PACE4 (Homo sapiens, UniProt P29122).
T1 sequence (P29122 150-969): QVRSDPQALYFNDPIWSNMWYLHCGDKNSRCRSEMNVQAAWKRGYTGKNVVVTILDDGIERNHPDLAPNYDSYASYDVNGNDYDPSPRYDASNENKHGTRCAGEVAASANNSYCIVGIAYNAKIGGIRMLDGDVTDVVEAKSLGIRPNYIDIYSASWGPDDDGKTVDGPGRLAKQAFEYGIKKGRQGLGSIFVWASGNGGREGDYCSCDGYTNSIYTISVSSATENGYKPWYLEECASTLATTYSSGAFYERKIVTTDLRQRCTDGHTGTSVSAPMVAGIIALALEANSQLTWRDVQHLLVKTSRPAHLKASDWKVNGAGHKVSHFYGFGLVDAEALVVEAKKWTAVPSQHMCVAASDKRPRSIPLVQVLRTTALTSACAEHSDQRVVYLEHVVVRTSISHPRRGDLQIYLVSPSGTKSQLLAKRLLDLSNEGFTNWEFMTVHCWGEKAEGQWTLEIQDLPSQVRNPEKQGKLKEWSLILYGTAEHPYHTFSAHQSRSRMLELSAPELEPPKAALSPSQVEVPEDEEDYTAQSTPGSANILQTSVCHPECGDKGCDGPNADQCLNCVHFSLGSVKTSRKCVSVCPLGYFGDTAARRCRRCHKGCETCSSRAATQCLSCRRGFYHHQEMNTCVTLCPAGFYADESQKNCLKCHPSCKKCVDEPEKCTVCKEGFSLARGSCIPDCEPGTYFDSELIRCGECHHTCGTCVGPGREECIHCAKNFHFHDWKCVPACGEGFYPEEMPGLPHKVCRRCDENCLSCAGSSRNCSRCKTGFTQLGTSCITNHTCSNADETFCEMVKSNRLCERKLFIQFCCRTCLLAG
In words: Inhibition constant (Ki) for PACE4. The format is biochemical.

In a further data set the test system is LNCaP cells. The conditions noted are these: MTT.
The test system of another data set is DU145 cells. The conditions noted are these: MTT; for Anti-proliferative activity in DU145 cells (in words): FIG. 1C, FIG. 7.
The target of another data set is furin (Homo sapiens, UniProt P09958). As to the kind of experiment: Inhibition constant (Ki) for furin. The conditions noted are these: read-out: Ki for furin. The class given is biochemical.
In the next data set the test system is LNCaP tumors. In words: Intratumoral treatment of LNCaP tumors in immunosuppressed mice.
Data set [2] can be described thus: Stability following incubation with DU145 cells. The class given is in vitro ADME, human. As to conditions: human, DU145 cells, Table 1, read-out: Stability (% remaining after 48 h). How it is done: as §1
Consequently, the multi-Leu peptide was further modified by the addition of amino acid analogues and/or with pseudo peptide bounds which increase the protection of the modified peptides from peptidase and protease degradation. Gains in stability were also measured in vitro in tumoral prostatic human cells (DU145). Increase in stability of the variants was also measured in vivo (FIG. 4).

Where [3] appears, read: Table 1, read-out: Ki for PACE4.

Values joined by “and” are separate entries in the source; they are usually repeats but may differ in a detail not shown here. Equal entries are not always repeated. Where two headings read alike, the source gives them in different places. Numbered stars: 1 amine (or outer) side, 2 acyl side, 3 side chain; on linkers, the order of the positions; unused ones are H or OH. Square brackets hold non-standard residues; d marks the D form. Peptide text beside a SMILES is read from it. * marks the point of attachment. X3 = CC(C)C[C@H](N[*:1])c1cn([C@@H](CC(C)C)C(=O)[*:2])nn1; X5 = CC(C)C/C(=C\C[C@H](CC(C)C)N[*:1])C(=O)[*:2]; NH(4-amidinobenzyl) = N=C(N)c1ccc(CN*)cc1; PEG8 = NCCOCCOCCOCCOCCOCCOCCOCCOCCC(=O)O; X1 = CC(C)CN(CC(=O)[*:2])N[*:1]; X4 = N=C(N)NCCCN(CC(N)=O)N*; Nle = CCCC[C@H](N)C(=O)O; X2 = N=C(N)NC/C=C/CN*

furin, sequence (P09958 108-794): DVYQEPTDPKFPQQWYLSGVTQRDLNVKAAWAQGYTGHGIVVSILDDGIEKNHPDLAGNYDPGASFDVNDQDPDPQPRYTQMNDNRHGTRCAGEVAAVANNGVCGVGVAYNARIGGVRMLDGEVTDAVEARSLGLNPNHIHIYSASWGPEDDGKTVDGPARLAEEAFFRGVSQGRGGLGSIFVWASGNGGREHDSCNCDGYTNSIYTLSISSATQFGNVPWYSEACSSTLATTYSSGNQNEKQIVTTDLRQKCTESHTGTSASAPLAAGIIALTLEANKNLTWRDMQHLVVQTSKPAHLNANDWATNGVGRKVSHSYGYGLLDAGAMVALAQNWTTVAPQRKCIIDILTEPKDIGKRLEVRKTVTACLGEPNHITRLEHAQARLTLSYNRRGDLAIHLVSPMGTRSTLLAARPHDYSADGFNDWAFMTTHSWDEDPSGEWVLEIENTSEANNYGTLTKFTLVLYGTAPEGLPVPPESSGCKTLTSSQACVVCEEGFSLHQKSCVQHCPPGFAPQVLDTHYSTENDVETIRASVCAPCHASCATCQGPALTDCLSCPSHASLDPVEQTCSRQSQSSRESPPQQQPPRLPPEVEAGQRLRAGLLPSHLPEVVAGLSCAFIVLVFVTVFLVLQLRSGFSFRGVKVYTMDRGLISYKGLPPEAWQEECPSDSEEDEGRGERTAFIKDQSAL

In data set [1] (Table 1), `CC(=O)N[C@@H](CC(C)C)C(=O)N[C@@H](CC(C)C)C(=O)N[C@@H](CC(C)C)C(=O)N[C@@H](CC(C)C)C(=O)N[C@@H](CCCNC(=N)N)C(=O)N[C@H](C(=O)N[C@@H](CCCCN)C(=O)NN(CCCNC(=N)N)CC(N)=O)C(C)C` [ML[Azaβ3R]^P1, Ac-LLLLRVK[Azaβ3R]-NH2] (Ac-LLLLRVK-X4) gave a half-life of 5.39 ± 0.08 h. The Ki at PACE4 (setting [3]) turned out to be 460 nM.

In the case of `CC(=O)N[C@@H](CC(C)C)C(=O)N[C@@H](CC(C)C)C(=O)N[C@@H](CC(C)C)C(=O)N[C@@H](CC(C)C)C(=O)N[C@@H](CCCNC(=N)N)C(=O)N[C@H](C(=O)N[C@@H](CCCCN)C(=O)N[C@H](CCCNC(=N)N)C(N)=O)C(C)C` [Ac-LLLLRVK-[DArg]-NH2] (Ac-LLLLRVK[dR]-NH2), the “Anti-proliferative activity in LNCaP cells (in words)” value in the data set with LNCaP cells (FIG. 1D) is reported as “poorly”. Further, the IC50 with LNCaP cells (read-out: IC50 cellular proliferation LNCaP, FIG. 1B/1D) was 389000 ± 12000 nM; with DU145 cells (read-out: IC50 cellular proliferation DU145, FIG. 1B/1C) it was 439000 ± 82000 nM. For the same molecule, the “Anti-proliferative activity in DU145 cells (in words)” value with DU145 cells is “poorly”. In addition, the Ki turned out to be 2600 nM on furin and 1380 nM on PACE4 (read-out: Ki for PACE4).

With `CC(=O)N[C@H](CC(C)C)C(=O)N[C@@H](CC(C)C)C(=O)N[C@@H](CC(C)C)C(=O)N[C@@H](CC(C)C)C(=O)N[C@@H](CCCNC(=N)N)C(=O)N[C@H](C(=O)N[C@@H](CCCCN)C(=O)NCc1ccc(C(=N)N)cc1)C(C)C` [[D-Leu]^P8-ML-[AMBA]^P1, Ac-[D-Leu]-LLLRVK-[AMBA]] (Ac-[dL]LLLRVK-{NH(4-amidinobenzyl)}), the half-life in data set [1] (Table 1) and in data set [1] (Table 2) was 11.3 h each time. In addition, the “Plasmatic concentration of PSA (in words)” value with LNCaP tumors (LNCaP tumors, FIG. 9) was “decreased”. For the same molecule, in the data set on LNCaP tumors (excised LNCaP tumors, FIG. 10A), the “Appearance of excised tumors (in words)” value is “smaller and have a white appearance”. In the data set with LNCaP tumors (immunocytochemistry, vs ML-peptide treated and untreated tumors, FIG. 10B), the “Level of p27KIP in excised tumors (in words)” value is “increased”. Further, in the data set on LNCaP tumors (immunocytochemistry, vs ML-peptide treated and untreated tumors, FIG. 10C), the “Level of Ki67 in excised tumors (in words)” value is recorded as “decreased”. Further, the “Tumor volume (in words)” value in the data set with LNCaP tumors (intratumorally 50 μg/48 h, LNCaP tumors, immunosuppressed mice, FIG. 8) is recorded as “consistently the more potent compound”.

Molecule `CC(=O)NN(CC(=O)N[C@@H](CC(C)C)C(=O)N[C@@H](CC(C)C)C(=O)N[C@@H](CC(C)C)C(=O)N[C@@H](CCCNC(=N)N)C(=O)N[C@H](C(=O)N[C@@H](CCCCN)C(=O)N[C@@H](CCCNC(=N)N)C(N)=O)C(C)C)CC(C)C` [ML[Azaβ3L]^P8] gave a half-life in data set [1] (Table 1) of 2.5 ± 0.1 h. The fraction remaining at 48 h in data set [2] worked out at 83%.

For `CCCC[C@H](NC(C)=O)C(=O)N[C@@H](CCCC)C(=O)N[C@@H](CC(C)C)C(=O)N[C@@H](CCCC)C(=O)N[C@@H](CCCN=C(N)N)C(=O)N[C@H](C(=O)N[C@@H](CCCCN)C(=O)N[C@@H](CCCN=C(N)N)C(N)=O)C(C)C` [ML[Nle]^P5-6-8, Ac-[Nle][Nle]L[Nle]RVKR-NH2], the fraction remaining at 48 h in data set [2] turned out to be 41%. Also, the affinity at PACE4 (Ki for PACE4, Table 1), expressed as Ki, was 85 nM.

`CCCC[C@H](NC(C)=O)C(=O)N[C@@H](CCCC)C(=O)N[C@@H](CCCC)C(=O)N[C@@H](CCCC)C(=O)N[C@@H](CCCNC(=N)N)C(=O)N[C@H](C(=O)N[C@@H](CCCCN)C(N)=O)C(C)C` [ML[Nleu]^P5-6-7-8, Ac-[Nle][Nle][Nle][Nle]RVK-NH2] (Ac-[Nle][Nle][Nle][Nle]RVK-NH2): the Ki at PACE4 (Ki for PACE4, Table 1) is 344 nM.

`CC(=O)N[C@@H](CC(C)C)C(=O)N[C@@H](CC(C)C)c1cn([C@@H](CC(C)C)C(=O)N[C@@H](CC(C)C)C(=O)N[C@@H](CCCNC(=N)N)C(=O)N[C@H](C(=O)N[C@@H](CCCCN)C(=O)N[C@@H](CCCNC(=N)N)C(N)=O)C(C)C)nn1` [ML[click]^P7-P6, Ac-LL[click]LLRVKR-NH2] (Ac-L[X3]LRVKR-NH2) showed a half-life in data set [1] (Table 1) of 1 ± 0.2 h. Further, the Ki at PACE4 (setting [3]) was determined as 600 nM.

In turn, “Ac-LLLSRVKR-NH2 [ML[Ser]-P5, Ac-LLLSRVKR-NH2]” gave a half-life in data set [1] (Table 1) of 2.32 ± 0.04 h. In data set [2], the share remaining at 48 h was 88%. This molecule also yielded a Ki on PACE4 (Ki for PACE4, Table 1) of 11 nM.

For the molecule `CCCC[C@H](NC(=O)[C@H](CC(C)C)NC(=O)[C@H](CC(C)C)NC(=O)[C@H](CC(C)C)NC(C)=O)C(=O)N[C@@H](CCCN=C(N)N)C(=O)N[C@H](C(=O)N[C@@H](CCCCN)C(=O)N[C@@H](CCCN=C(N)N)C(N)=O)C(C)C` [ML[Nle]^P5] (Ac-LLL[Nle]RVKR-NH2), the Ki at PACE4 (setting [3]) is 17 nM and 37 nM.

`CC(=O)N[C@@H](CC(C)C)c1cn([C@@H](CC(C)C)C(=O)N[C@@H](CC(C)C)C(=O)N[C@@H](CC(C)C)C(=O)N[C@@H](CCCNC(=N)N)C(=O)N[C@H](C(=O)N[C@@H](CCCCN)C(=O)N[C@@H](CCCNC(=N)N)C(N)=O)C(C)C)nn1` [ML[click]^P8-P7, Ac-L[click]LLLRVKR-NH2] (Ac-[X3]LLRVKR-NH2): in data set [1] (Table 1), the half-life was 4 ± 0.5 h. Also, in data set [2], the share remaining at 48 h worked out at 52%. For the same molecule, the Ki at PACE4 (setting [3]) was determined as 37 nM.

The molecule `CC(=O)NCCOCCOCCOCCOCCOCCOCCOCCOCCC(=O)N[C@@H](CC(C)C)C(=O)N[C@@H](CC(C)C)C(=O)N[C@@H](CC(C)C)C(=O)N[C@@H](CC(C)C)C(=O)N[C@@H](CCCNC(=N)N)C(=O)N[C@H](C(=O)N[C@@H](CCCCN)C(=O)N[C@@H](CCCNC(=N)N)C(N)=O)C(C)C` [[H2N-PEG8]-ML, Ac-[HN-PEG8]-LLLLRVKR-NH2] (Ac-[PEG8]LLLLRVKR-NH2) gave a half-life in data set [1] (Table 1) of 1.3 ± 0.2 h. Also, in data set [2], the amount remaining at 48 h is 64%.

With `CC(=O)NN(CC(=O)N[C@@H](CC(C)C)C(=O)N[C@@H](CC(C)C)C(=O)N[C@@H](CC(C)C)C(=O)N[C@@H](CCCNC(=N)N)C(=O)N[C@H](C(=O)N[C@@H](CCCCN)C(=O)NC/C=C/CNC(=N)N)C(C)C)CC(C)C` [[Azaβ3L]^P8-ML-[ΔR-CO2]^P1, Ac-[Azaβ3L]LLLRVKR-[ΔR-COO]] (Ac-[X1]LLLRVK-X2), the half-life in data set [1] (Table 1) and in data set [1] (Table 2) was 5.67 ± 0.07 h each time. Further, in the data set on DU145 cells, the “Anti-proliferative activity in DU145 cells (in words)” value is recorded as “IC50 lower than the IC50 of the multi-Leu control”.

For the molecule `CC(=O)N[C@@H](CC(C)C)C(=O)N[C@@H](CC(C)C)C(=O)N[C@@H](CC(C)C)C(=O)N[C@@H](CC(C)C)C(=O)N[C@@H](CCCNC(=N)N)C(=O)N[C@H](C(=O)N[C@@H](CCCCN)C(=O)NCc1ccc(C(=N)N)cc1)C(C)C` [ML-[AMBA]^P1, Ac-LLLLRVK-[AMBA]] (Ac-LLLLRVK-{NH(4-amidinobenzyl)}), in the data set with DU145 cells, the “Anti-proliferative activity in DU145 cells (in words)” value is recorded as “IC50 lower than the IC50 of the multi-Leu control”.

For the molecule `CC(=O)N[C@H](C/C=C(\CC(C)C)C(=O)N[C@@H](CC(C)C)C(=O)N[C@@H](CC(C)C)C(=O)N[C@@H](CCCNC(=N)N)C(=O)N[C@H](C(=O)N[C@@H](CCCCN)C(=O)N[C@@H](CCCNC(=N)N)C(N)=O)C(C)C)CC(C)C` [ML[c-ene]^P8-P7, Ac-L═LLLRVKR-NH2] (Ac-[X5]LLRVKR-NH2), the half-life in data set [1] (Table 1) is approximately 7.4 h.
